Assay [1] has as its target PLpro (Severe acute respiratory syndrome coronavirus 2, UniProt P0DTD1). In words: IC50 test against PLpro (selectivity check for quinones). The assay is classed as biochemical, SARS-CoV-2. The note with it: Supplementary Figure S4; for specificity of Mpro inhibition: conclusion from PLpro counter-test; for selectivity Mpro versus PLpro: quinones tested on PLpro.
The target in assay [2] is SARS-CoV-2 Mpro (Severe acute respiratory syndrome coronavirus 2, UniProt P0DTD1). In words: biochemical.

Consider three compounds from PMC8892251, “An Enhanced Hybrid Screening Approach to Identify Potent Inhibitors for the SARS-CoV-2 Main Protease From the NCI Compound Library” (Frontiers in Chemistry, 2022).

Values joined by “and” are separate entries in the source; they are usually repeats but may differ in a detail not shown here. Equal values may be shown once. Read-outs that look alike come from different tables or passages of the source.

As usually defined, the IC50 is the point on the concentration scale where inhibition reaches its midpoint. Turning to `CC1=C(N=[N+]=[N-])C(=O)C(C)=C(N=[N+]=[N-])C1=O` [Compound 88], in assay [1], the “specificity of Mpro inhibition” value is given as “specifically inhibit the activity of Mpro” and the “selectivity Mpro versus PLpro” value is “more selective on Mpro than PLpro”. Moreover, the 50% inhibitory concentration (IC50) in assay [2] (IC50) was determined as 723 nM.

On to `O=C1C=CC(=O)c2c1ncc1c2nc2sccn21` [Compound 110], for which, in assay [1], the “specificity of Mpro inhibition” value was “specifically inhibit the activity of Mpro” and the “selectivity Mpro versus PLpro” value is recorded as “more selective on Mpro than PLpro”. In addition, the IC50 in assay [2] (Mpro, Figure 5, triplicate experiments, read-out: IC50) is 705 nM. For the same compound, the IC50 in assay [2] (Mpro, read-out: IC50) came out at 705 nM.

With `O=C1C=C/C(=N\c2nc3c4ccccc4c4ccccc4c3[nH]2)c2ccccc21` [Compound 112], the “selectivity Mpro versus PLpro” value in assay [1] is on record as “more selective on Mpro than PLpro”. The 50% inhibitory concentration (IC50) in assay [2] (IC50) is 1690 nM and 1700 nM.
